“Also recorded” adds a separate entry of the source. Like-named read-outs stand apart in the source and are kept apart here. Marks after values point to notes of the source that are not given here.
Experiments:
[1] = target: T1, hERG (Homo sapiens, UniProt Q12809); settings: for hERG ion channel inhibition (in words): hERG inhibition binding assay
[2] = tested on: plasma IGF-1; assay: Plasma IGF-1 after repeated daily oral dosing in rats; assay type: in vivo, rat; settings: male SD rats
[3] = target: Human SST2 (Homo sapiens, UniProt P30874); assay type: cell-based
[4] = tested on: plasma IGF-1; assay: Plasma IGF-1 after repeated daily oral dosing in dogs; assay type: in vivo, dog; settings: p < 0.05
[5] = target: T1, hERG; assay: Patch-clamp hERG assay; assay type: cell-based
[6] = tested on: IGF-1; settings: Phase 2, acromegaly patients switched to oral paltusotine; cited from earlier work
[7] = healthy human volunteers, Phase 1 study; cited from earlier work
[8] = tested on: GH secretion and IGF-1; settings: cited from earlier work; for effect on IGF-1 levels / effect on GHRH-stimulated GH secretion: Phase 1, healthy volunteers; for effect on IGF-1 levels: over several days

T1 sequence (Q12809 whole entry): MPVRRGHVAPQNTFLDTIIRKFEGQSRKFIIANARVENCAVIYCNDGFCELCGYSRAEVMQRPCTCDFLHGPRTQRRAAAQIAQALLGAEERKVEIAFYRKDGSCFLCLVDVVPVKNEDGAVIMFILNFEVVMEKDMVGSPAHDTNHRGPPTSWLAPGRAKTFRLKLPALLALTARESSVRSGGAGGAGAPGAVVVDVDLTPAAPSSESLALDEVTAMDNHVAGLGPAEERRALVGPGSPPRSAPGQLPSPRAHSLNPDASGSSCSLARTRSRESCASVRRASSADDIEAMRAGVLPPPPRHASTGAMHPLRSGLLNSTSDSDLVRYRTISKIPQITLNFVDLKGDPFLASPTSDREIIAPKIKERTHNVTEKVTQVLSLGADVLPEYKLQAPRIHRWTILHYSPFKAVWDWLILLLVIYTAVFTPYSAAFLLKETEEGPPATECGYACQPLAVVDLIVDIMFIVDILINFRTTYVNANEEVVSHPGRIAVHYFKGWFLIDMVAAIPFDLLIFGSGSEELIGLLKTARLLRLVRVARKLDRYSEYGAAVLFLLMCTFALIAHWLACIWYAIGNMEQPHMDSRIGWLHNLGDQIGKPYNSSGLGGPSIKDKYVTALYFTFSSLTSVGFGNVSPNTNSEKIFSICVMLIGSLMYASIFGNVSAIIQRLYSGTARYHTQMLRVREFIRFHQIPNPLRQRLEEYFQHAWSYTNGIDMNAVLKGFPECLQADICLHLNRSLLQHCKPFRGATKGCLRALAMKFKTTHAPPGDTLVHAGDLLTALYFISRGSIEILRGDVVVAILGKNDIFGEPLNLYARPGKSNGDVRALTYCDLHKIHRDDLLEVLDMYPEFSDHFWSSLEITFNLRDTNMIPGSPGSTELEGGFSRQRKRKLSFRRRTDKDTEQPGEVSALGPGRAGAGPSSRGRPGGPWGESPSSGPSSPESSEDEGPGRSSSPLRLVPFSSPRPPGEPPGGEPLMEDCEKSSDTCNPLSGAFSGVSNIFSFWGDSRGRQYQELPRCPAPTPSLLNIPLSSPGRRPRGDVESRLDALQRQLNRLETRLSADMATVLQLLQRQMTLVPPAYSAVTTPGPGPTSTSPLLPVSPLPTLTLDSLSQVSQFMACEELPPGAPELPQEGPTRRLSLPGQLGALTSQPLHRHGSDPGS
Chain of Human SST2 (P30874 whole entry): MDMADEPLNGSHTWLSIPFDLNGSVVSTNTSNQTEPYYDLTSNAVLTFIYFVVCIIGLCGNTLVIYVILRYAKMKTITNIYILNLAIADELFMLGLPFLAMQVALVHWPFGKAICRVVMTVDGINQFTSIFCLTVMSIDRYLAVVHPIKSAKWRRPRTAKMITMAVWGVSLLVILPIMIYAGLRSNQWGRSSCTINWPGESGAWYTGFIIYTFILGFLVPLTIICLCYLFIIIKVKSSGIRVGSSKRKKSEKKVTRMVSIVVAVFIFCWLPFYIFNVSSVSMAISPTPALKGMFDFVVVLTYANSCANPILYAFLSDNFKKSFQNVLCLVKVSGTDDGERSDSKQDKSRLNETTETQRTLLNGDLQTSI

| selectivity for SST2 over other SST receptor subtypes [3] [fold] | Compound | hERG ion channel inhibition (in words) [1] | suppression of plasma IGF-1 relative to vehicle ([2]; 10 mg/kg/day po for 14 days, days 2, 10 and 14, p < 0.05) | suppression of plasma IGF-1 relative to vehicle ([2]; 30 mg/kg/day po for 14 days, all days measured, p < 0.05) | hERG pIC50±SEM ([1]; hERG binding assay) | suppression of plasma IGF-1 relative to vehicle, day 1 ([4]; male and female beagle dogs, 150 mg/kg/day po) | suppression of plasma IGF-1 compared to vehicle, day 7 ([4]; male and female beagle dogs, 6, 30 and 150 mg/kg/day po for 7 days) | IC50 [5] [µM] | effect on IGF-1 levels after switch from injected depots [6] | oral bioavailability [7] [%] | effect on IGF-1 levels ([8]; listed as Paltusotine) | effect on IGF-1 levels ([8]; listed as paltusotine) | effect on GHRH-stimulated GH secretion ([8]; listed as Paltusotine) | effect on GHRH-stimulated GH secretion ([8]; listed as paltusotine) | tolerability ([8]; double-blind placebo-controlled Phase 1 trial, healthy volunteers) |
| --- | --- | --- | --- | --- | --- | --- | --- | --- | --- | --- | --- | --- | --- | --- | --- |
| – | N#Cc1cc(F)cc(-c2ccc3ncc(-c4cc(F)cc(F)c4)c(N4CCC(N)CC4)c3c2)c1O [Compound 24] | weak inhibitors | – | – | – | – | – | – | – | – | – | – | – | – | – |
| > 1000 | N#Cc1cccc(-c2ccc3ncc(-c4cc(F)cc(F)c4)c(N4CCC(N)CC4)c3c2)c1O [Compound 22, 3-[4-(4-aminopiperidin-1-yl)-3-(3,5-difluorophenyl)quinolin-6-yl]-2-hydroxybenzonitrile] | weak inhibitors; also recorded: no direct inhibition | significantly suppressed | significantly suppressed | <5 ^c | significantly suppressed | significantly suppressed | 9.9 | maintain IGF-1 levels | ~70 | dose-dependent reduction | lowered IGF-1 levels | dose-dependent reduction | acutely suppressed | good tolerability |
| – | N#Cc1cccc(-c2ccc3ncc(-c4cccc(F)c4)c(N4CCC(N)CC4)c3c2)c1O [Compound 25] | weak inhibitors | – | – | – | – | – | – | – | – | – | – | – | – | – |
